# Results from PubChem BioAssay (NCI).
#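 Grown in 96-well plates, cells were treated for 48 hours with each compound at five concentrations. Insufficient inhibition: endpoint recorded as highest concentration tested. TGI denotes the concentration required for complete inhibition of growth.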
# Experiments:
# Test in all cases: NCI-60 cell line screen, 48 h
# OVCAR-8 ovarian = test system: OVCAR-8 ovarian
# HOP-62 NSCLC = test system: HOP-62 NSCLC
# SNB-19 CNS = test system: SNB-19 CNS
# SK-OV-3 ovarian = test system: SK-OV-3 ovarian
# MOLT-4 leukemia = test system: MOLT-4 leukemia
# SF-295 CNS = test system: SF-295 CNS
# RXF 393 renal = test system: RXF 393 renal
# SR leukemia = test system: SR leukemia
# HCT-15 colon = test system: HCT-15 colon
# HT29 colon = test system: HT29 colon
# HOP-92 NSCLC = test system: HOP-92 NSCLC
# OVCAR-3 ovarian = test system: OVCAR-3 ovarian
# UACC-257 melanoma = test system: UACC-257 melanoma
# IGROV1 ovarian = test system: IGROV1 ovarian
# OVCAR-5 ovarian = test system: OVCAR-5 ovarian
# KM20L2 colon = test system: KM20L2 colon
# SK-MEL-28 melanoma = test system: SK-MEL-28 melanoma
# XF 498 CNS = test system: XF 498 CNS
# HCC-2998 colon = test system: HCC-2998 colon
# DMS 273 small cell lung = test system: DMS 273 small cell lung
# ACHN renal = test system: ACHN renal
# HL-60(TB) leukemia = test system: HL-60(TB) leukemia
# HOP-18 NSCLC = test system: HOP-18 NSCLC
# SK-MEL-2 melanoma = test system: SK-MEL-2 melanoma
# SNB-75 CNS = test system: SNB-75 CNS
# 786-0 renal = test system: 786-0 renal
# NCI-H460 lung = test system: NCI-H460 lung
# SW-620 colon = test system: SW-620 colon
# NCI-H23 lung = test system: NCI-H23 lung
# LXFL 529 NSCLC = test system: LXFL 529 NSCLC
# SNB-78 CNS = test system: SNB-78 CNS
# HCT-116 colon = test system: HCT-116 colon
# DLD-1 colon = test system: DLD-1 colon
# MALME-3M melanoma = test system: MALME-3M melanoma
# RPMI-8226 leukemia = test system: RPMI-8226 leukemia
# CCRF-CEM leukemia = test system: CCRF-CEM leukemia
# SF-539 CNS = test system: SF-539 CNS
# NCI-H226 lung = test system: NCI-H226 lung
# SN12C renal = test system: SN12C renal
# SF-268 CNS = test system: SF-268 CNS
# U251 CNS = test system: U251 CNS
# UO-31 renal = test system: UO-31 renal
# TK-10 renal = test system: TK-10 renal
# M19-MEL melanoma = test system: M19-MEL melanoma
# LOX IMVI melanoma = test system: LOX IMVI melanoma
# A549 NSCLC = test system: A549 NSCLC
# EKVX NSCLC = test system: EKVX NSCLC
# UACC-62 melanoma = test system: UACC-62 melanoma
# CAKI-1 renal = test system: CAKI-1 renal
# NCI-H522 lung = test system: NCI-H522 lung
# M14 melanoma = test system: M14 melanoma
# KM12 colon = test system: KM12 colon
# COLO 205 colon = test system: COLO 205 colon
# DMS 114 small cell lung = test system: DMS 114 small cell lung
# SK-MEL-5 melanoma = test system: SK-MEL-5 melanoma
# K-562 leukemia = test system: K-562 leukemia
# OVCAR-4 ovarian = test system: OVCAR-4 ovarian
# A498 renal = test system: A498 renal
# RXF-631 renal = test system: RXF-631 renal
compound,measurement,setting,value
Cc1cc2c(C)nn(Cc3ccc(Cl)cc3Cl)c2c(C#N)c1C,TGI,OVCAR-8 ovarian,> 100 µM
same,TGI,HOP-62 NSCLC,> 100 µM
same,TGI,SNB-19 CNS,> 100 µM
same,TGI,SK-OV-3 ovarian,> 100 µM
same,TGI,MOLT-4 leukemia,> 100 µM
same,TGI,SF-295 CNS,> 100 µM
same,TGI,RXF 393 renal,> 100 µM
same,TGI,SR leukemia,> 100 µM
same,TGI,HCT-15 colon,> 100 µM
same,TGI,HT29 colon,> 100 µM
same,TGI,HOP-92 NSCLC,92.6 µM
same,TGI,OVCAR-3 ovarian,> 100 µM
same,TGI,UACC-257 melanoma,> 100 µM
same,TGI,IGROV1 ovarian,> 100 µM
same,TGI,OVCAR-5 ovarian,> 100 µM
same,TGI,KM20L2 colon,> 100 µM
same,TGI,SK-MEL-28 melanoma,> 100 µM
same,TGI,XF 498 CNS,> 100 µM
same,TGI,HCC-2998 colon,> 100 µM
same,TGI,DMS 273 small cell lung,> 100 µM
same,TGI,ACHN renal,> 100 µM
same,TGI,HL-60(TB) leukemia,> 100 µM
same,TGI,HOP-18 NSCLC,> 100 µM
same,TGI,SK-MEL-2 melanoma,> 100 µM
same,TGI,SNB-75 CNS,> 100 µM
same,TGI,786-0 renal,> 100 µM
same,TGI,NCI-H460 lung,> 100 µM
same,TGI,SW-620 colon,> 100 µM
same,TGI,NCI-H23 lung,> 100 µM
same,TGI,LXFL 529 NSCLC,> 100 µM
same,TGI,SNB-78 CNS,> 100 µM
same,TGI,HCT-116 colon,> 100 µM
same,TGI,DLD-1 colon,> 100 µM
same,TGI,MALME-3M melanoma,> 100 µM
same,TGI,RPMI-8226 leukemia,> 100 µM
same,TGI,CCRF-CEM leukemia,> 100 µM
same,TGI,SF-539 CNS,> 100 µM
same,TGI,NCI-H226 lung,> 100 µM
same,TGI,SN12C renal,> 100 µM
same,TGI,SF-268 CNS,> 100 µM
same,TGI,U251 CNS,> 100 µM
same,TGI,UO-31 renal,> 100 µM
same,TGI,TK-10 renal,> 100 µM
same,TGI,M19-MEL melanoma,> 100 µM
same,TGI,LOX IMVI melanoma,> 100 µM
same,TGI,A549 NSCLC,> 100 µM
same,TGI,EKVX NSCLC,> 100 µM
same,TGI,UACC-62 melanoma,> 100 µM
N=C1SCCS1,TGI,OVCAR-8 ovarian,> 100 µM
same,TGI,HOP-62 NSCLC,> 100 µM
same,TGI,SNB-19 CNS,> 100 µM
same,TGI,CAKI-1 renal,> 100 µM
same,TGI,SK-OV-3 ovarian,> 100 µM
same,TGI,MOLT-4 leukemia,> 100 µM
same,TGI,SF-295 CNS,> 100 µM
same,TGI,HCT-15 colon,> 100 µM
same,TGI,NCI-H522 lung,> 100 µM
same,TGI,HT29 colon,> 100 µM
same,TGI,M14 melanoma,> 100 µM
same,TGI,HOP-92 NSCLC,> 100 µM
same,TGI,OVCAR-3 ovarian,> 100 µM
same,TGI,UACC-257 melanoma,> 100 µM
same,TGI,IGROV1 ovarian,> 100 µM
same,TGI,KM12 colon,> 100 µM
same,TGI,COLO 205 colon,> 100 µM
same,TGI,OVCAR-5 ovarian,> 100 µM
same,TGI,KM20L2 colon,> 100 µM
same,TGI,SK-MEL-28 melanoma,> 100 µM
same,TGI,XF 498 CNS,> 100 µM
same,TGI,HCC-2998 colon,> 100 µM
same,TGI,ACHN renal,> 100 µM
same,TGI,DMS 114 small cell lung,> 100 µM
same,TGI,HL-60(TB) leukemia,> 100 µM
same,TGI,SK-MEL-2 melanoma,> 100 µM
same,TGI,SNB-75 CNS,> 100 µM
same,TGI,786-0 renal,> 100 µM
same,TGI,NCI-H460 lung,> 100 µM
same,TGI,SK-MEL-5 melanoma,> 100 µM
same,TGI,SW-620 colon,> 100 µM
same,TGI,NCI-H23 lung,> 100 µM
same,TGI,LXFL 529 NSCLC,> 100 µM
same,TGI,SNB-78 CNS,> 100 µM
same,TGI,HCT-116 colon,> 100 µM
same,TGI,DLD-1 colon,> 100 µM
same,TGI,K-562 leukemia,> 100 µM
same,TGI,MALME-3M melanoma,> 100 µM
same,TGI,RPMI-8226 leukemia,> 100 µM
same,TGI,CCRF-CEM leukemia,> 100 µM
same,TGI,SF-539 CNS,> 100 µM
same,TGI,NCI-H226 lung,> 100 µM
same,TGI,SN12C renal,> 100 µM
same,TGI,SF-268 CNS,> 100 µM
same,TGI,U251 CNS,> 100 µM
same,TGI,UO-31 renal,> 100 µM
same,TGI,TK-10 renal,> 100 µM
same,TGI,M19-MEL melanoma,> 100 µM
same,TGI,LOX IMVI melanoma,> 100 µM
same,TGI,A549 NSCLC,> 100 µM
same,TGI,EKVX NSCLC,> 100 µM
same,TGI,UACC-62 melanoma,> 100 µM
same,TGI,OVCAR-4 ovarian,> 100 µM
O=C(NCCS(=O)(=O)N1C(=O)C2CCCN2C(=O)[C@@H]1Cc1ccccc1)OCc1ccccc1 (some centres not stated),TGI,OVCAR-8 ovarian,> 100 µM
same,TGI,HOP-62 NSCLC,> 100 µM
same,TGI,SNB-19 CNS,> 100 µM
same,TGI,CAKI-1 renal,> 100 µM
same,TGI,SK-OV-3 ovarian,> 100 µM
same,TGI,A498 renal,95.9 µM
same,TGI,MOLT-4 leukemia,> 100 µM
same,TGI,SF-295 CNS,> 100 µM
same,TGI,RXF 393 renal,> 100 µM
same,TGI,SR leukemia,> 100 µM
same,TGI,HCT-15 colon,> 100 µM
same,TGI,NCI-H522 lung,> 100 µM
same,TGI,HT29 colon,> 100 µM
same,TGI,M14 melanoma,> 100 µM
same,TGI,HOP-92 NSCLC,> 100 µM
same,TGI,OVCAR-3 ovarian,70.2 µM
same,TGI,UACC-257 melanoma,> 100 µM
same,TGI,IGROV1 ovarian,> 100 µM
same,TGI,KM12 colon,> 100 µM
same,TGI,COLO 205 colon,58.4 µM
same,TGI,OVCAR-5 ovarian,> 100 µM
same,TGI,KM20L2 colon,> 100 µM
same,TGI,SK-MEL-28 melanoma,> 100 µM
same,TGI,XF 498 CNS,11 µM
same,TGI,HCC-2998 colon,73.2 µM
same,TGI,ACHN renal,> 100 µM
same,TGI,DMS 114 small cell lung,89.2 µM
same,TGI,HL-60(TB) leukemia,48.9 µM
same,TGI,HOP-18 NSCLC,> 100 µM
same,TGI,SNB-75 CNS,> 100 µM
same,TGI,786-0 renal,> 100 µM
same,TGI,RXF-631 renal,> 100 µM
same,TGI,NCI-H460 lung,> 100 µM
same,TGI,SK-MEL-5 melanoma,> 100 µM
same,TGI,SW-620 colon,> 100 µM
same,TGI,NCI-H23 lung,> 100 µM
same,TGI,LXFL 529 NSCLC,> 100 µM
same,TGI,SNB-78 CNS,> 100 µM
same,TGI,HCT-116 colon,> 100 µM
same,TGI,DLD-1 colon,> 100 µM
same,TGI,K-562 leukemia,> 100 µM
same,TGI,MALME-3M melanoma,> 100 µM
same,TGI,RPMI-8226 leukemia,64.4 µM
same,TGI,CCRF-CEM leukemia,> 100 µM
same,TGI,SF-539 CNS,> 100 µM
same,TGI,NCI-H226 lung,> 100 µM
same,TGI,SN12C renal,> 100 µM
same,TGI,SF-268 CNS,> 100 µM
same,TGI,U251 CNS,> 100 µM
same,TGI,UO-31 renal,> 100 µM
same,TGI,TK-10 renal,> 100 µM
same,TGI,LOX IMVI melanoma,> 100 µM
same,TGI,A549 NSCLC,> 100 µM
same,TGI,EKVX NSCLC,> 100 µM
same,TGI,UACC-62 melanoma,> 100 µM
same,TGI,OVCAR-4 ovarian,> 100 µM
